Source: the supplement of paper PMC9663587

Assays:
[1] = compound: CCCCOc1c(C(=O)c2c(F)cc(C)cc2F)c[nH]c2nncc1-2
TGX221 = compound: CC1=CN2C(=O)C=C(N=C2C(=C1)C(C)NC3=CC=CC=C3)N4CCOCC4 [TGX221]
[2] = compound: CC(=O)c1c(C)c2cnc(Nc3ccc(N4CCNCC4)cn3)nc2n(C2CCCC2)c1=O
[3] = compound: COc1ccc2c(c1)[C@]1(C[C@H]1c1ccc3c(/C=C/c4ccc(CN5C[C@@H](C)O[C@@H](C)C5)cc4)n[nH]c3c1)C(=O)N2
THZ531 = compound: CN(C)C/C=C/C(=O)Nc1ccc(C(=O)N2CCC[C@@H](Nc3ncc(Cl)c(-c4c[nH]c5ccccc45)n3)C2)cc1 [THZ531]
Olaparib/AZD2281 = compound: O=C(c1cc(Cc2n[nH]c(=O)c3ccccc23)ccc1F)N1CCN(C(=O)C2CC2)CC1 [Olaparib/AZD2281]
ABT-737 = compound: CN(C)CC[C@H](CSc1ccccc1)Nc1ccc(S(=O)(=O)NC(=O)c2ccc(N3CCN(Cc4ccccc4-c4ccc(Cl)cc4)CC3)cc2)cc1[N+](=O)[O-] [ABT-737]
Dasatinib = compound: Cc1nc(Nc2ncc(C(=O)Nc3c(C)cccc3Cl)s2)cc(N2CCN(CCO)CC2)n1 [Dasatinib]
THZ1 = compound: CN(C)C/C=C/C(=O)Nc1ccc(C(=O)Nc2cccc(Nc3ncc(Cl)c(-c4c[nH]c5ccccc45)n3)c2)cc1 [THZ1]
Ipatasertib/GDC0068 = compound: CC(C)NC[C@@H](C(=O)N1CCN(c2ncnc3c2[C@H](C)C[C@H]3O)CC1)c1ccc(Cl)cc1 [Ipatasertib/GDC0068]
[4] = compound: CNc1nc(-c2ccc3c(N)n[nH]c3c2)cc(N2C[C@@H](C(=O)NC3CCCCC3)CC[C@H]2C)n1
AZD7762 = compound: NC(=O)Nc1cc(-c2cccc(F)c2)sc1C(=O)N[C@H]1CCCNC1 [AZD7762]
Taselisib/GDC0032 = compound: Cc1nc(-c2cn3c(n2)-c2ccc(-c4cnn(C(C)(C)C(N)=O)c4)cc2OCC3)n(C(C)C)n1 [Taselisib/GDC0032]
AZD1775 = compound: C=CCn1c(=O)c2cnc(Nc3ccc(N4CCN(C)CC4)cc3)nc2n1-c1cccc(C(C)(C)O)n1 [AZD1775]
BSJ-01-175 = compound: CN(C)C/C=C/C(=O)Nc1ccc(O[C@@H]2CCC[C@@H](Nc3ncc(Cl)c(-c4c[nH]c5ccccc45)n3)C2)cc1 [BSJ-01-175]
Torin2 = compound: C1=CC(=CC(=C1)N2C(=O)C=CC3=CN=C4C=CC(=CC4=C32)C5=CN=C(C=C5)N)C(F)(F)F [Torin2]
Vorinostat = compound: O=C(CCCCCCC(=O)Nc1ccccc1)NO [Vorinostat]
AZD6738 = compound: C[C@@H]1COCCN1c1cc(C2([S@](C)(=N)=O)CC2)nc(-c2cc[nH]c3nccc2-3)n1 [AZD6738]
[5] = compound: CC(=O)Nc1cccc(-n2c(=O)n(C3CC3)c(=O)c3c(Nc4ccc(I)cc4F)n(C)c(=O)c(C)c32)c1
Cabozantinib = compound: COc1cc2nccc(Oc3ccc(NC(=O)C4(C(=O)Nc5ccc(F)cc5)CC4)cc3)c2cc1OC [Cabozantinib]
[6] = compound: CCN1CCN(Cc2ccc(Nc3ncc(F)c(-c4cc(F)c5nc(C)n(C(C)C)c5c4)n3)nc2)CC1
Tivantinib/ARQ197 = compound: O=C1NC(=O)[C@@H](c2cn3c4c(cccc24)CCC3)[C@@H]1c1c[nH]c2ccccc12 [Tivantinib/ARQ197]
THZ-P1-2 = compound: CN(C)C/C=C/C(=O)NC1=CC=C(C=C1)C(=O)NC2=CC=CC(=C2)NC3=NC=NC(=C3)C4=CNC5=CC=CC=C54 [THZ-P1-2]
Buparlisib/NVP-BKM120 = compound: Nc1cc(C(F)(F)F)c(-c2cc(N3CCOCC3)nc(N3CCOCC3)n2)cn1 [Buparlisib/NVP-BKM120]
INK128/MLN0128 = compound: CC(C)n1nc(-c2ccc3oc(N)nc3c2)c2c(N)ncnc21 [INK128/MLN0128]
Alpelisib/BYL719 = compound: Cc1nc(NC(=O)N2CCC[C@H]2C(N)=O)sc1-c1ccnc(C(C)(C)C(F)(F)F)c1 [Alpelisib/BYL719]
SHP099 = compound: CC1(CCN(CC1)C2=CN=C(C(=N2)N)C3=C(C(=CC=C3)Cl)Cl)N [SHP099]
Volasertib/BI6727 = compound: CC[C@@H]1C(=O)N(C)c2cnc(Nc3ccc(C(=O)N[C@H]4CC[C@H](N5CCN(CC6CC6)CC5)CC4)cc3OC)nc2N1C(C)C [Volasertib/BI6727]
senexin b = compound: CN1CCN(C(=O)c2ccc3cc(CCNc4ncnc5ccc(C#N)cc45)ccc3c2)CC1 [senexin b]
Rucaparib = compound: CNCc1ccc(-c2[nH]c3cc(F)cc4c3c2CCNC4=O)cc1 [Rucaparib]
Saracatinib/AZD0530 = compound: CN1CCN(CCOc2cc(OC3CCOCC3)c3c(Nc4c(Cl)ccc5c4OCO5)ncnc3c2)CC1 [Saracatinib/AZD0530]
Luminespib/NVP-AUY922 = compound: CCNC(=O)c1noc(-c2cc(C(C)C)c(O)cc2O)c1-c1ccc(CN2CCOCC2)cc1 [Luminespib/NVP-AUY922]
Cediranib/AZD2171 = compound: COc1cc2c(Oc3ccc4[nH]c(C)cc4c3F)ncnc2cc1OCCCN1CCCC1 [Cediranib/AZD2171]
AZD2014 = compound: CNC(=O)c1cccc(-c2ccc3c(N4CCOC[C@@H]4C)nc(N4CCOC[C@@H]4C)nc3n2)c1 [AZD2014]
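Note: breast cancer and non-malignant breast epithelial cell lines, Deep Dye Drop or Dye Drop imaging, nine half-log doses, GR normalized to time-zero plates and DMSO-only controls.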

| Cell Line | GR50, 72 h [1] [µM] | GR50, 72 h (TGX221) [µM] | GR50, 72 h [2] [µM] | GR50, 72 h [3] [µM] | GR50, 72 h (THZ531) [µM] | GR50, 72 h (Olaparib/AZD2281) [µM] | GR50, 72 h (ABT-737) [µM] | GR50, 72 h (Dasatinib) [µM] | GR50, 72 h (THZ1) [µM] | GR50, 72 h (Ipatasertib/GDC0068) [µM] | GR50, 72 h [4] [µM] | GR50, 72 h (AZD7762) [µM] | GR50, 72 h (Taselisib/GDC0032) [µM] | GR50, 72 h (AZD1775) [µM] | GR50, 72 h (BSJ-01-175) [µM] | GR50, 72 h (Torin2) [µM] | GR50, 72 h (Vorinostat) [µM] | GR50, 72 h (AZD6738) [µM] | GR50, 72 h [5] [µM] | GR50, 72 h (Cabozantinib) [µM] | GR50, 72 h [6] [µM] | GR50, 72 h (Tivantinib/ARQ197) [µM] | GR50, 72 h (THZ-P1-2) [µM] | GR50, 72 h (Buparlisib/NVP-BKM120) [µM] | GR50, 72 h (INK128/MLN0128) [µM] | GR50, 72 h (Alpelisib/BYL719) [µM] | GR50, 72 h (SHP099) [µM] | GR50, 72 h (Volasertib/BI6727) [µM] | GR50, 72 h (senexin b) [µM] | GR50, 72 h (Rucaparib) [µM] | GR50, 72 h (Saracatinib/AZD0530) [µM] | GR50, 72 h (Luminespib/NVP-AUY922) [µM] | GR50, 72 h (Cediranib/AZD2171) [µM] | GR50, 72 h (AZD2014) [µM] |
| --- | --- | --- | --- | --- | --- | --- | --- | --- | --- | --- | --- | --- | --- | --- | --- | --- | --- | --- | --- | --- | --- | --- | --- | --- | --- | --- | --- | --- | --- | --- | --- | --- | --- | --- |
| SUM229PE | 0.0124 | > 10 | 0.956 | 0.00229 | 0.314 | > 10 | 8.41 | 0.094 | 0.0185 | > 10 | > 10 | 0.0909 | 0.377 | 0.00928 | 0.0424 | 0.0523 | 3.48 | 3.34 | 0.00774 | 6.79 | 0.531 | 0.083 | 5.54 | 1.27 | 0.047 | > 10 | > 10 | 0.0135 | > 10 | > 10 | 5.44 | 0.00595 | 8.64 | 0.0116 |
| AU565 | 0.142 | > 10 | 0.165 | 0.00339 | 0.055 | > 10 | 7.24 | 5.35 | 0.0187 | 3.89 | 7.64 | 0.805 | 0.00379 | 0.216 | 0.00616 | 0.00547 | 1.07 | 8.56 | > 1 | 9.13 | 0.0308 | 0.215 | 5.22 | 0.106 | 0.00529 | 0.27 | > 10 | 0.00381 | > 10 | > 10 | 4.82 | 0.00456 | > 10 | 0.00361 |
| HCC1937 | < 0.001 | > 10 | > 3.16 | 0.00432 | 0.26 | > 10 | 5.77 | 0.113 | 0.0648 | > 10 | > 10 | 0.17 | 1.23 | 0.00892 | 0.302 | 0.0934 | 1.91 | 9.08 | > 1 | > 10 | 4.82 | 0.649 | 4.05 | 1.45 | 0.0515 | > 10 | > 10 | 0.0119 | 4.95 | > 10 | > 10 | 0.0114 | 8.4 | 0.0304 |
| 184A1 | < 0.001 | > 10 | 0.0897 | 0.00198 | 0.269 | > 10 | 3.93 | 0.756 | 0.00774 | > 10 | > 10 | 2.62 | 0.192 | 0.674 | 0.00519 | 0.0106 | 2.52 | > 10 | 0.00069 | 8.43 | 0.0256 | 0.0644 | 1.72 | 1.52 | 0.00892 | 7.72 | 6.56 | 0.0124 | > 10 | > 10 | 4.62 | 0.00549 | 7.6 | 0.00164 |
| PDX1258 | < 0.001 | > 10 | > 3.16 | 0.00294 | 0.0492 | > 10 | > 10 | 0.0216 | 0.0148 | 4.37 | > 10 | 0.0152 | 0.996 | 0.0187 | 0.00362 | 0.0356 | 1.57 | 3.53 | > 1 | 8.59 | 0.674 | 0.397 | 0.492 | 1.36 | 0.044 | > 10 | > 10 | 0.00743 | > 10 | > 10 | 0.722 | 0.0101 | 4.71 | 0.401 |
| MDAMB436 | 1.02 | > 10 | > 3.16 | 0.00237 | 0.19 | 1.53 | > 10 | > 10 | 0.135 | > 10 | > 10 | 0.04 | 4.66 | 0.175 | 0.00965 | 0.0412 | 2.68 | 9.07 | > 1 | 6.5 | 2.1 | 0.368 | 4.3 | 1.18 | 0.0241 | > 10 | > 10 | 0.00518 | 8.65 | 0.828 | > 10 | 0.00391 | 3.61 | > 10 |
| HCC1143 | 0.00177 | > 10 | 0.277 | 0.00523 | 0.131 | 8.83 | 6.19 | 0.139 | 0.0265 | > 10 | > 10 | 0.0557 | 0.215 | 0.703 | 0.0506 | 0.0447 | 0.91 | 5.13 | 0.00883 | > 10 | 0.0703 | 0.278 | 5.01 | 0.725 | 0.0405 | 9.88 | > 10 | 0.00459 | > 10 | > 10 | 3.03 | 0.00391 | 3.73 | 0.413 |
